Measurements: patent US20100021918A1, “METHOD FOR ASSAYING ACTION OF ANTITUMOR AGENT USING SPLICING DEFECTS AS INDEX” (Eisai R&D Management Co., Ltd., priority 2007, published 2010)

System: peripheral blood mononuclear cells (PBMC)
Test: Microarray analysis (3), dose-dependent intron expression in PBMC at 3, 10, 30 nM, Table 5
Format: cell-based, human
Procedure: PBMC was suspended in RPMI1640 medium (containing 10% FBS, penicillin, and streptomycin) to 5×10^6 cells/ml and 1 ml of the suspension was plated per well of a 24-well plate. Immediately, 111 μl of 10 times-concentrated (8E,12E,14E)-7-((4-cycloheptylpiperazin-1-yl)carbonyl)oxy-3,6,16,21-tetrahydroxy-6,10,12,16,20-pentamethyl-18,19-epoxytricosa-8,12,14-trien-11-olide was added to the well (six wells per each concentration tested). The cells were then cultured in an incubator with 5% carbon dioxide gas at 37° C. Three hours later, the supernatant was collected and centrifuged at 1500 rpm for five minutes. TRI reagent (SIGMA) (1 ml) was added to each well of the plate from which the supernatant was removed to harvest the cells, which was added to the centrifuged pellet to dissolve. RNA was purified in accordance with the protocol of TRI reagent. RNA was further purified using RNeasy (QIAGEN) and, in accordance with the protocol, DNaseI was added to the samples during the procedure. Absorbance at 260 nm was measured to quantify an amount of RNA.
Ribosomal RNA was removed from 1 μg of each total RNA of control cells (n=3) and cells with the treatment (n=3) using RiboMinus Human/Mouse Transcriptome Isolation Kit (Invitrogen). Single stranded cDNA synthesis, double stranded cDNA synthesis, cRNA synthesis, second single stranded cDNA synthesis, cDNA fragmentation, and cDNA labeling in order were carried out for total RNA from which ribosomal RNA was removed, using GeneChip Whole Transcript Sense Target Labeling and Control Reagents (Affymetrix) to make a cDNA probe. Subsequently, the cDNA probe was used for hybridization with Human Exon 1.0 ST Array (Affymetrix). The array was washed and stained, and luminescence intensity was measured by a scanner.
The expression level of the probe set and the gene was quantified by using Expression Console Ver. 1.0 (Affymetrix) with Summarization Method and Normalization Method being set to “Median polish as used in RMA” and “None”, respectively. The expression level of the probe was normalized with that of the gene.
Probe sets showing that the normalized change in the level expression of the probe set in the group with the treatment at 30 nM was more than 5 times; the expression level of the probe set and the gene in the group with the treatment at 30 nM was more than 100; and probe set annotation was “extended, full, free”, were picked out. Regression analysis was performed with the probe sets extracted for the control group, the group with the treatment at 3 nM, the group with the treatment at 10 nM, and the group with the treatment at 30 nM to determine a p and q value for the slope of regression formula. A gene containing the probe sets with the q value of less than 5% was determined as a candidate gene with increased expression level of the intron regions (Table 5).
In Table 5, for the gene evaluated, gene name (Gene Name), abbreviated name (Gene Symbol), accession number (Accession), alias name (Synonym), transcription cluster number in Human Exon 1.0 ST Array (Human Exon 1.0 ST Array Transcription Cluster ID), chromosome number (Chromosome), type of strand (Strand), start region (Start), stop region (Stop), and change in expression level per 1 nM (Fold Change/nM) were respectively shown.

Compound: CCC(O)C(C)C1OC1CC(C)(O)/C=C/C=C(\C)C1OC(=O)CC(O)CCC(C)(O)C(OC(=O)N2CCN(C3CCCCCC3)CC2)/C=C/C1C (stereo not shown) [E7107, (8E,12E,14E)-7-((4-cycloheptylpiperazin-1-yl)carbonyl)oxy-3,6,16,21-tetrahydroxy-6,10,12,16,20-pentamethyl-18,19-epoxytricosa-8,12,14-trien-11-olide]
- Fold Change/nM (gene ABCC1, intron expression, 3, 10, 30 nM): 1.05 nM⁻¹
- Fold Change/nM (gene ADAR introns, regression over control, 3, 10, 30 nM): 1.05 nM⁻¹
- Fold Change/nM (gene AMPD3 // PPARA // TRMU // GTSE1, intron expression, 3, 10, 30 nM): 1.05 nM⁻¹
- Fold Change/nM (gene ANKH introns, regression over control, 3, 10, 30 nM): 1.05 nM⁻¹
- Fold Change/nM (gene ARF1 introns, regression over control, 3, 10, 30 nM): 1.05 nM⁻¹
- Fold Change/nM (gene ARHGDIB introns, regression over control, 3, 10, 30 nM): 1.05 nM⁻¹
- Fold Change/nM (gene ATP8A1 // PCLKC, intron expression, 3, 10, 30 nM): 1.05 nM⁻¹
- Fold Change/nM (gene AUTS2, intron expression, 3, 10, 30 nM): 1.05 nM⁻¹
- Fold Change/nM (gene BAT2D1, intron expression, 3, 10, 30 nM): 1.05 nM⁻¹
- Fold Change/nM (gene BCL9L, intron expression, 3, 10, 30 nM): 1.05 nM⁻¹
- Fold Change/nM (gene C3orf63, intron expression, 3, 10, 30 nM): 1.05 nM⁻¹
- Fold Change/nM (gene C13orf18, intron expression, 3, 10, 30 nM): 1.05 nM⁻¹
- Fold Change/nM (gene C22orf28, intron expression, 3, 10, 30 nM): 1.05 nM⁻¹
- Fold Change/nM (gene CALR, intron expression, 3, 10, 30 nM): 1.05 nM⁻¹
- Fold Change/nM (gene CAND1 introns, regression over control, 3, 10, 30 nM): 1.05 nM⁻¹
- Fold Change/nM (gene CCND2 introns, regression over control, 3, 10, 30 nM): 1.05 nM⁻¹
- Fold Change/nM (gene CDC2L5, intron expression, 3, 10, 30 nM): 1.05 nM⁻¹
- Fold Change/nM (gene CEP170 // CEP170L, intron expression, 3, 10, 30 nM): 1.05 nM⁻¹
- Fold Change/nM (gene CHST11, intron expression, 3, 10, 30 nM): 1.05 nM⁻¹
- Fold Change/nM (gene DDEF1, intron expression, 3, 10, 30 nM): 1.05 nM⁻¹
- Fold Change/nM (gene DDX3Y introns, regression over control, 3, 10, 30 nM): 1.05 nM⁻¹
- Fold Change/nM (gene DDX18 // WNT8B, intron expression, 3, 10, 30 nM): 1.05 nM⁻¹
- Fold Change/nM (gene DENND4A introns, regression over control, 3, 10, 30 nM): 1.05 nM⁻¹
- Fold Change/nM (gene DPF2, intron expression, 3, 10, 30 nM): 1.05 nM⁻¹
- Fold Change/nM (gene DRAM, intron expression, 3, 10, 30 nM): 1.05 nM⁻¹
- Fold Change/nM (gene DUSP16, intron expression, 3, 10, 30 nM): 1.05 nM⁻¹
- Fold Change/nM (gene EDD1, intron expression, 3, 10, 30 nM): 1.05 nM⁻¹
- Fold Change/nM (gene EIF3S10, intron expression, 3, 10, 30 nM): 1.05 nM⁻¹
- Fold Change/nM (gene EIF4A1 // SENP3, intron expression, 3, 10, 30 nM): 1.05 nM⁻¹
- Fold Change/nM (gene FBXO11, intron expression, 3, 10, 30 nM): 1.05 nM⁻¹
- Fold Change/nM (gene FNTA, intron expression, 3, 10, 30 nM): 1.05 nM⁻¹
- Fold Change/nM (gene FOXK2, intron expression, 3, 10, 30 nM): 1.05 nM⁻¹
- Fold Change/nM (gene FOXO3A, intron expression, 3, 10, 30 nM): 1.05 nM⁻¹
- Fold Change/nM (gene GAK, intron expression, 3, 10, 30 nM): 1.05 nM⁻¹
- Fold Change/nM (gene GDI1 introns, regression over control, 3, 10, 30 nM): 1.05 nM⁻¹
- Fold Change/nM (gene GNA12, intron expression, 3, 10, 30 nM): 1.05 nM⁻¹
- Fold Change/nM (gene GP5 // ZNF394, intron expression, 3, 10, 30 nM): 1.05 nM⁻¹
- Fold Change/nM (gene GTF3C4 introns, regression over control, 3, 10, 30 nM): 1.05 nM⁻¹
- Fold Change/nM (gene GTPBP4, intron expression, 3, 10, 30 nM): 1.05 nM⁻¹
- Fold Change/nM (gene IDI1 introns, regression over control, 3, 10, 30 nM): 1.05 nM⁻¹
- Fold Change/nM (gene IFNGR1 introns, regression over control, 3, 10, 30 nM): 1.05 nM⁻¹
- Fold Change/nM (gene KIAA0226 introns, regression over control, 3, 10, 30 nM): 1.05 nM⁻¹
- Fold Change/nM (gene KLF9 introns, regression over control, 3, 10, 30 nM): 1.05 nM⁻¹
- Fold Change/nM (gene LDLR introns, regression over control, 3, 10, 30 nM): 1.05 nM⁻¹
- Fold Change/nM (gene MAPK6, intron expression, 3, 10, 30 nM): 1.05 nM⁻¹
- Fold Change/nM (gene MKI67IP introns, regression over control, 3, 10, 30 nM): 1.05 nM⁻¹
- Fold Change/nM (gene MLL3 // ADAMTS2 // LRRK1 // BAGE3 introns, regression over control, 3, 10, 30 nM): 1.05 nM⁻¹
- Fold Change/nM (gene MLLT3, intron expression, 3, 10, 30 nM): 1.05 nM⁻¹
- Fold Change/nM (gene MTMR6 introns, regression over control, 3, 10, 30 nM): 1.05 nM⁻¹
- Fold Change/nM (gene MYD88, intron expression, 3, 10, 30 nM): 1.05 nM⁻¹
- Fold Change/nM (gene NFKB2, intron expression, 3, 10, 30 nM): 1.05 nM⁻¹
- Fold Change/nM (gene NIPBL // NRBP1 introns, regression over control, 3, 10, 30 nM): 1.05 nM⁻¹
- Fold Change/nM (gene NPAT, intron expression, 3, 10, 30 nM): 1.05 nM⁻¹
- Fold Change/nM (gene NR3C1, intron expression, 3, 10, 30 nM): 1.05 nM⁻¹
- Fold Change/nM (gene PAK2, intron expression, 3, 10, 30 nM): 1.05 nM⁻¹
- Fold Change/nM (gene PJA2 introns, regression over control, 3, 10, 30 nM): 1.05 nM⁻¹
- Fold Change/nM (gene PLEK, intron expression, 3, 10, 30 nM): 1.05 nM⁻¹
- Fold Change/nM (gene PLEKHM1, intron expression, 3, 10, 30 nM): 1.05 nM⁻¹
- Fold Change/nM (gene POLR3E introns, regression over control, 3, 10, 30 nM): 1.05 nM⁻¹
- Fold Change/nM (gene PPP1CB, intron expression, 3, 10, 30 nM): 1.05 nM⁻¹
- Fold Change/nM (gene PRKAR1A, intron expression, 3, 10, 30 nM): 1.05 nM⁻¹
- Fold Change/nM (gene PRPF4B, intron expression, 3, 10, 30 nM): 1.05 nM⁻¹
- Fold Change/nM (gene PSEN1, intron expression, 3, 10, 30 nM): 1.05 nM⁻¹
- Fold Change/nM (gene PSMD11, intron expression, 3, 10, 30 nM): 1.05 nM⁻¹
- Fold Change/nM (gene RANGAP1, intron expression, 3, 10, 30 nM): 1.05 nM⁻¹
- Fold Change/nM (gene RARA, intron expression, 3, 10, 30 nM): 1.05 nM⁻¹
- Fold Change/nM (gene RBM23 // C9orf102, intron expression, 3, 10, 30 nM): 1.05 nM⁻¹
- Fold Change/nM (gene SETD5, intron expression, 3, 10, 30 nM): 1.05 nM⁻¹
- Fold Change/nM (gene SF3B1, intron expression, 3, 10, 30 nM): 1.05 nM⁻¹
- Fold Change/nM (gene SF3B2, intron expression, 3, 10, 30 nM): 1.05 nM⁻¹
- Fold Change/nM (gene SFPQ, intron expression, 3, 10, 30 nM): 1.05 nM⁻¹
- Fold Change/nM (gene SFRS2IP introns, regression over control, 3, 10, 30 nM): 1.05 nM⁻¹
- Fold Change/nM (gene SFRS3, intron expression, 3, 10, 30 nM): 1.05 nM⁻¹
- Fold Change/nM (gene SLFN11, intron expression, 3, 10, 30 nM): 1.05 nM⁻¹
- Fold Change/nM (gene ST8SIA4 introns, regression over control, 3, 10, 30 nM): 1.05 nM⁻¹
- Fold Change/nM (gene STX6, intron expression, 3, 10, 30 nM): 1.05 nM⁻¹
- Fold Change/nM (gene SUPV3L1 introns, regression over control, 3, 10, 30 nM): 1.05 nM⁻¹
- Fold Change/nM (gene THRAP1 introns, regression over control, 3, 10, 30 nM): 1.05 nM⁻¹
- Fold Change/nM (gene TLR4, intron expression, 3, 10, 30 nM): 1.05 nM⁻¹
- Fold Change/nM (gene TMEM1, intron expression, 3, 10, 30 nM): 1.05 nM⁻¹
- Fold Change/nM (gene TMEM2, intron expression, 3, 10, 30 nM): 1.05 nM⁻¹
- Fold Change/nM (gene TNFSF8, intron expression, 3, 10, 30 nM): 1.05 nM⁻¹
- Fold Change/nM (gene TRAF3 introns, regression over control, 3, 10, 30 nM): 1.05 nM⁻¹
- Fold Change/nM (gene UBXD2 introns, regression over control, 3, 10, 30 nM): 1.05 nM⁻¹
- Fold Change/nM (gene USP4, intron expression, 3, 10, 30 nM): 1.05 nM⁻¹
- Fold Change/nM (gene USP38, intron expression, 3, 10, 30 nM): 1.05 nM⁻¹
- Fold Change/nM (gene USP47 introns, regression over control, 3, 10, 30 nM): 1.05 nM⁻¹
- Fold Change/nM (gene YME1L1, intron expression, 3, 10, 30 nM): 1.05 nM⁻¹
- Fold Change/nM (gene ZNF267, intron expression, 3, 10, 30 nM): 1.05 nM⁻¹
- Fold Change/nM (introns of gene ACSL1, regression over control, 3, 10, 30 nM): 1.07 nM⁻¹
- Fold Change/nM (introns of gene BASP1, regression over control, 3, 10, 30 nM): 1.07 nM⁻¹
- Fold Change/nM (introns of gene CD2, regression over control, 3, 10, 30 nM): 1.07 nM⁻¹
- Fold Change/nM (introns of gene EIF2C2, regression over control, 3, 10, 30 nM): 1.07 nM⁻¹
- Fold Change/nM (introns of gene GCH1, regression over control, 3, 10, 30 nM): 1.07 nM⁻¹
- Fold Change/nM (introns of gene ITGAV, regression over control, 3, 10, 30 nM): 1.08 nM⁻¹
- Fold Change/nM (introns of gene NFKB1, regression over control, 3, 10, 30 nM): 1.07 nM⁻¹
- Fold Change/nM (introns of gene NUMB, regression over control, 3, 10, 30 nM): 1.07 nM⁻¹
- Fold Change/nM (introns of gene PRKCE, regression over control, 3, 10, 30 nM): 1.07 nM⁻¹
- Fold Change/nM (introns of gene PSMD3, regression over control, 3, 10, 30 nM): 1.07 nM⁻¹
- Fold Change/nM (introns of gene QKI, regression over control, 3, 10, 30 nM): 1.07 nM⁻¹
